From ChEMBL document CHEMBL1147397, “Biemnasterol, a new cytotoxic sterol with the rare 22,25-diene side chain, isolated from the marine sponge Biemna sp” (J Nat Prod, 1993) come the findings set out here.

For one experiment, the system named is KB. The experiment can be described thus: Cytotoxicity against human KB cells. It counts as functional, cell-based.
In a further experiment the test system is L1210. The experiment can be described thus: Cytotoxicity against mouse L1210 cells. The class given is functional, cell-based.

Each structure is given as a SMILES string. Converted amounts (≈) assume the structure as drawn.

In the case of `C=C(C)[C@H](C)/C=C/[C@@H](C)[C@H]1CC[C@H]2C3=C[C@@H](O)[C@@]4(O)C[C@@H](O)CC[C@]4(C)[C@H]3CC[C@]12C` [BIEMNASTEROL], the IC50 (in general, the point on the concentration scale where inhibition reaches its midpoint) in the experiment on KB came to 1.3 µg/mL (≈ 3.03 µM); with L1210 it was 3 µg/mL (≈ 7 µM).
